How the values were obtained:
Histamine H1 receptor = Histamine H1 receptor (Homo sapiens, UniProt P35367); assay: Displacement of [3H]mepyramine from human histamine H1 receptor expressed in sf9 cell membrane co-expressing RGS4 incubated for 60 mins by liquid scintillation counting method
Histamine H3 receptor [1] = target: T1, Histamine H3 receptor (Homo sapiens, UniProt Q9Y5N1); assay: Antagonist activity at human histamine H3 receptor expressed in sf9 cell membrane co-expressing mammalian Galphai2 and Gbeta1gamma2 assessed as inhibition of histamine-induced [35S]GTPgammaS binding incubated for 90 mins; format: functional
Histamine H3 receptor [2] = target: T1, Histamine H3 receptor; assay: Intrinsic activity at human histamine H3 receptor expressed in sf9 cell membrane co-expressing mammalian Galphai2 and Gbeta1gamma2 at 10 uM incubated for 90 mins by [35S]GTPgammaS binding assay relative to histamine; format: functional
Histamine H4 receptor [3] = target: T2, Histamine H4 receptor (Homo sapiens, UniProt Q9H3N8); assay: Agonist activity at human histamine H4 receptor expressed in sf9 cell membrane co-expressing mammalian Galphai2 and Gbeta1gamma2 incubated for 90 mins by [35S]GTPgammaS binding assay; format: functional
Histamine H2 receptor [4] = target: T3, Histamine H2 receptor (Homo sapiens, UniProt P25021); assay: Agonist activity at human histamine H2 receptor expressed in sf9 cell membrane co-expressing Gsalphas incubated for 90 mins by [35S]GTPgammaS binding assay; format: functional
Histamine H2 receptor [5] = target: T3, Histamine H2 receptor; assay: Intrinsic activity at human histamine H2 receptor expressed in sf9 cell membrane co-expressing Gsalphas at 10 uM incubated for 90 mins by [35S]GTPgammaS binding assay relative to histamine; format: functional
Histamine H4 receptor [6] = target: T2, Histamine H4 receptor; assay: biochemical; format: cell-based, SK-N-MC
Histamine H3 receptor [7] = target: T1, Histamine H3 receptor; assay: Displacement of [3H]N-alpha-methylhistamine from human histamine H3 receptor expressed in human SK-N-MC cells incubated for 40 mins; format: cell-based

T3 sequence (P25021 whole entry): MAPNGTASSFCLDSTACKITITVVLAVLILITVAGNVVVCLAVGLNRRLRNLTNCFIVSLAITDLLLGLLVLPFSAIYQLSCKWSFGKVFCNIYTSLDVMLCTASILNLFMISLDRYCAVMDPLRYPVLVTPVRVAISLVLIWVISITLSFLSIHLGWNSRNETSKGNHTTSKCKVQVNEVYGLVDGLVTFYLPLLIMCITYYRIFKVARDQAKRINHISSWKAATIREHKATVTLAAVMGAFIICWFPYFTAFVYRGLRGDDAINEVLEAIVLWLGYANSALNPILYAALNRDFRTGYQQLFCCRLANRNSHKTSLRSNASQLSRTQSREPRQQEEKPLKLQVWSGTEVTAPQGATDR
T1 sequence (Q9Y5N1 whole entry): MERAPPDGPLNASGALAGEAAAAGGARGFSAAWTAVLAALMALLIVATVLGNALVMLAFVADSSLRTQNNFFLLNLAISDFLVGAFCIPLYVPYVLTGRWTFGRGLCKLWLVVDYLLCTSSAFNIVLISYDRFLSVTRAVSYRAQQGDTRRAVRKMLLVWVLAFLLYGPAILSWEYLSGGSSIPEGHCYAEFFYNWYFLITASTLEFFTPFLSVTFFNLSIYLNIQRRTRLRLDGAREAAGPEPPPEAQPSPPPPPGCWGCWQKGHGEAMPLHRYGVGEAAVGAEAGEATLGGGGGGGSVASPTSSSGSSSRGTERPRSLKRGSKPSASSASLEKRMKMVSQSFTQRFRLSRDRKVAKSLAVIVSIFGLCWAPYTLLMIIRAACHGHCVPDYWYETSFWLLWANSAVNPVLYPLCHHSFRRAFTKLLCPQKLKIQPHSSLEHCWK
T2 sequence (Q9H3N8 whole entry): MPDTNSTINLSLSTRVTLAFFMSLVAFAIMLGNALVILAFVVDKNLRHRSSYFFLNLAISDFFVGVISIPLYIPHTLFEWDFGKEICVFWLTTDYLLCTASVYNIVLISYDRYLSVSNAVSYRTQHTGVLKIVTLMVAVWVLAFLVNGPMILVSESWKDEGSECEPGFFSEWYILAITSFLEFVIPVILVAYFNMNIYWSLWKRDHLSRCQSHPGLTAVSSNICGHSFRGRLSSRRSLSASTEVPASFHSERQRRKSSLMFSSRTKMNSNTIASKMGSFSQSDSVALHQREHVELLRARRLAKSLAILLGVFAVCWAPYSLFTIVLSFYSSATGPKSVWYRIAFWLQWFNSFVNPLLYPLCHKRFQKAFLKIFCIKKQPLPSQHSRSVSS
Chain of Histamine H1 receptor (P35367 whole entry): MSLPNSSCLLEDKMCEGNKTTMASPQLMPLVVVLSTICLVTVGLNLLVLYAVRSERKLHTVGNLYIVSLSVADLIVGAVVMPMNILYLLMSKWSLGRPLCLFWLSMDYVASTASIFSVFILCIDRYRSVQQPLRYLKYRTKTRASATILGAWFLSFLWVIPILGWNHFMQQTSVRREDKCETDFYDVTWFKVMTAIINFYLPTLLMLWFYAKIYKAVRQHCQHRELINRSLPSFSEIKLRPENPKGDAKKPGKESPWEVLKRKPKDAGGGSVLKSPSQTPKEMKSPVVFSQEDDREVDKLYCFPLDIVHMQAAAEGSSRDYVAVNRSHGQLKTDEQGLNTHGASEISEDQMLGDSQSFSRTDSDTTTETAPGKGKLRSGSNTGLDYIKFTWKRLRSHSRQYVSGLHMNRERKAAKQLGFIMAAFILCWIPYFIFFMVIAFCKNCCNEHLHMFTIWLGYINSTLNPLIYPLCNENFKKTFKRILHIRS

SMILES	Ki (Histamine H1 receptor) [µM]	Kb (Histamine H3 receptor [1]) [µM]	Intrinsic activity (Histamine H3 receptor [2])	EC50 (Histamine H4 receptor [3]) [µM]	EC50 (Histamine H2 receptor [4]) [µM]	Intrinsic activity (Histamine H2 receptor [5])	Ki (Histamine H4 receptor [6]) [µM]	Ki (Histamine H3 receptor [7]) [µM]
NC[C@H]1CC[C@H](c2c[nH]cn2)C1 (racemic)	> 10	0.103	0	1.71	> 10	0		
NC[C@@H]1CC[C@H](c2c[nH]cn2)C1 (racemic)	> 10	0.062	0	0.15	> 10	0.19		
NCCCCc1c[nH]cn1 [IMBUTAMINE]							0.0127	0.0043

From ChEMBL document CHEMBL3804756 (J Med Chem, 2016)
